Reference: BigSolDB 2.1

CCC[C@@H]1CC(=O)N([C@@H](CC)C(N)=O)C1
solubility (mole fraction)
Conditions | 278.15 K | 283.15 K | 288.15 K | 293.15 K | 298.15 K | 303.15 K | 308.15 K | 313.15 K | 318.15 K | 323.15 K
in MTBE | 0.00794 | 0.0117 | 0.0181 | 0.0331 | 0.0496 | 0.078 | 0.11 | 0.175 | 0.291 | 0.419
in diisopropyl ether | 0.00075 | 0.00108 | 0.00235 | 0.00327 | 0.00513 | 0.00618 | 0.00879 | 0.0143 | 0.0205 | 0.0341
in ethanol | 0.189 | 0.226 | 0.258 | 0.297 | 0.328 | 0.371 | 0.415 | 0.466 | 0.523 | 0.576
in ethyl acetate | 0.0369 | 0.0541 | 0.0769 | 0.113 | 0.152 | 0.201 | 0.275 | 0.332 | 0.418 | 0.499
in ethyl formate | 0.0887 | 0.113 | 0.142 | 0.18 | 0.224 | 0.279 | 0.33 | 0.393 | 0.465 | 0.519
in isopropanol | 0.127 | 0.163 | 0.186 | 0.219 | 0.25 | 0.287 | 0.341 | 0.392 | 0.445 | 0.51
in isopropyl acetate | 0.0322 | 0.0429 | 0.0625 | 0.0768 | 0.109 | 0.154 | 0.206 | 0.287 | 0.365 | 0.455
in methanol | 0.234 | 0.275 | 0.309 | 0.337 | 0.367 | 0.416 | 0.445 | 0.497 | 0.557 | 0.61
in n-butyl acetate | 0.0279 | 0.0337 | 0.0428 | 0.0577 | 0.0846 | 0.108 | 0.161 | 0.21 | 0.293 | 0.412
in n-heptane | 1.02e-05 | 1.86e-05 | 3.36e-05 | 4.77e-05 | 8.17e-05 | 0.000113 | 0.000168 | 0.000249 | 0.000335 | 0.000493
in n-hexane | 4.1e-05 | 6.64e-05 | 8.92e-05 | 0.000133 | 0.00018 | 0.000239 | 0.000324 | 0.000413 | 0.000524 | 0.000739
in n-propanol | 0.137 | 0.17 | 0.204 | 0.245 | 0.28 | 0.318 | 0.365 | 0.412 | 0.475 | 0.52
